The subject of data set [1] is AKT (Ser473). Put plainly: Phospho-AKT HTRF assay in HEK293 cells. The following applies: HEK293, subthreshold HGF 10 ng/mL + fosgo-AM 0.1 µM, vs HGF alone. In kind it is cell-based, human. The source says:
To determine phosphoactivation status of the intracellular signaling molecules ERK (Thr202/Tyr204) or AKT (Ser473), we used homogenous time-resolved fluorescence (HTRF) kits to assess phosphorylation status based on the energy transfer between donor and acceptor phospho-ERK (pERK) or phospho-AKT (pAKT) antibodies. HTRF kit processing for pERK (Phospho-ERK [Thr202/Tyr204] cellular Advanced kit, #64AERPEG, Cisbio, Codolet, France) and pAKT (Phospho-AKT [Ser473] cellular kit, #64AKSPEG, Cisbio, Codolet, France) were carried out per manufacturer instructions. In brief, HEK293 cells were grown at 37 °C, 5% CO2 in DMEM + 10% FBS until approximately 80% confluent. Cells were seeded in polystyrene-treated 96-well cell culture plates at approximately 50,000 cells/well and cultured overnight in 50 µL serum-free growth media. […] Fluorescence emission at 2 different wavelengths (665 nm and 620 nm) were measured on an Envision plate reader (PerkinElmer, Waltham, Massachusetts), and the HTRF ratio of the acceptor and donor emission signals for each well was calculated as follows: HTRF ratio = (665 nm/620 nm) × 10,000. […] Data were assessed for normality (Shapiro–Wilk) and homoscedasticity (Brown-Forsythe). Statistical significance was determined by one-way analysis of variance (ANOVA) with Tukey’s multiple comparison post-test. […]

Data set [2] in a line: Fosgo-AM solubility (turbidity in PBS). The following applies: 1% DMSO, 37 °C, 2 h. The class given is physicochemical. On the procedure: A fosgo-AM dilution series was produced in DMSO. Compound stocks were added in triplicate to a 96-well plate containing PBS, resulting in 1% DMSO concentration, and were incubated at 37 °C for 2 h. Turbidity in the sample wells was determined by absorbance at 620 nm.

For data set [3], the system named is IL-1β. Put plainly: IL-1β release in LPS-challenged THP-1 macrophages (HTRF). The class given is cell-based, human. Particulars: 1 µM, 20 min pretreatment, LPS 50 ng/mL 24 h, vs LPS + vehicle. On the procedure: To determine the effect of fosgo-AM on LPS-induced cytokine release, we sought to determine the levels of interleukin-1β (IL-1β), interleukin-6 (IL-6), and tumor necrosis factor-α (TNF-α) in LPS-challenged THP-1–differentiated macrophages in the presence and absence of fosgo-AM. THP-1 monocytes were grown at 37 °C, 5% CO2 in Roswell Park Memorial Institute (RPMI) medium + 10% FBS until approximately 80% confluent. Cells were seeded in polystyrene-treated 96-well cell culture plates at approximately 50,000 cells/well in 100-µL complete media. 100 µL Phorbol myristate acetate was then added to each well for a final concentration of 100 ng/mL. The plate was then incubated for 3 days at 37 °C, 5% CO2 to prime the monocytes into macrophages. […] For cytokine quantification, cell culture supernatant was assayed by HTRF kits to assess levels of IL-1β (Human IL-1β kit, #62HIL1BPEG, Cisbio, Codolet, France) and IL-6 (Human IL-6 kit, 62HIL06PET, Cisbio, Codolet, France), and by ELISA (Human TNF-α ELISA kit, KHC3011, ThermoFisher, Waltham, Massachusetts) to determine the levels of TNF-α. […] Fluorescence emission at 2 different wavelengths (665 nm and 620 nm) were measured on an Envision plate reader (PerkinElmer, Waltham, Massachusetts), and HTRF ratio of the acceptor and donor emission signals for each well was calculated as follows: HTRF ratio = (665 nm/620 nm) × 10,000. […]
(TR-FRET usually uses a lanthanide donor and a delayed reading to cut background.)

The structures appear in SMILES notation. Non-standard residues stand in square brackets, D forms with d. Residues, ends and D or L forms follow the SMILES beside them. *: point of attachment. Hexanoyl = CCCCCC(=O)*; Ahx = NCCCCCC(=O)O

For the compound `CCCCCC(=O)N[C@@H](Cc1ccc(O)cc1)C(=O)N[C@H](C(=O)NCCCCCC(N)=O)[C@@H](C)CC` [fosgo-AM] (Hexanoyl-Tyr-Ile-[Ahx]-NH2), the pAKT levels entry in data set [1] is “significant increase”. Moreover, the maximum aqueous solubility entry in data set [2] is “less than 50 μg/mL”. For the same compound, in data set [3], the IL-1β release result was “significant decrease”.

The values are drawn from PMC10121968, “Fosgonimeton, a Novel Positive Modulator of the HGF/MET System, Promotes Neurotrophic and Procognitive Effects in Models of Dementia” (Neurotherapeutics, 2022).
